According to patent US20020137929A1, “1 - (3-heterocyclylphenyl) isothiourea, -isourea, -guanidine and -amidine herbicidal agents” (Intellectual Property Department, BASF Aktiengesellschaft, priority 1998, published 2002):

Experiments:
GALAP (Galium) [1] = assay: Postemergence herbicidal evaluation; type: in vivo, Galium aparine; conditions: postemergence
Method in brief: (§1)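 Each compound, dispersed in an acetone/water mix (50/50) carrying 0.5% TWEEN 20, is nozzle-sprayed at 40 psi on approximately two-week-old seedlings at about 0.0156–0.500 kg/ha. Plants are assessed 4–5 weeks afterward on a 0–9 scale relative to control; duplicate tests are averaged.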

ABUTH (Velvetleaf) = assay: Postemergence herbicidal evaluation; type: in vivo, Abutilon theophrasti; conditions: postemergence
Method in brief: as §1

MOOVA (Monochoria) = assay: Postemergence weed control under flooded paddy conditions; type: in vivo, Monochoria vaginalis; conditions: postemergence weeds, rated 3 to 4 weeks after treatment
Method in brief: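 Injury ratings (0–9 scale covering stand, vigor, malformation, size, chlorosis and overall appearance versus control) were made three to four weeks after treatment. Test material, about 0.0313 to 0.500 kg/ha a.i. in 50/50 v/v aqueous/acetone, was added to flood water 1.5 to 3 cm deep over 3 to 5 cm weeds and 1.5 to 2.5 leaf rice.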

GALAP (Galium) [2] = assay: Preemergence herbicidal evaluation; type: in vivo, Galium aparine; conditions: preemergence, rated 4-5 weeks after treatment, 0-9 scale
Method in brief: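 Visual 0-9 rating vs control (stand, vigor, malformation, size, chlorosis, overall appearance), scored 4-5 wk after spraying. Seeded soil cups were treated preemergence with compound in aqueous acetone, ~0.0156-0.500 kg/ha equivalent.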

SMILES | GALAP herbicidal rating (GALAP (Galium) [1]; rate 0.0156 kg/ha) | GALAP herbicidal rating (GALAP (Galium) [1]; rate 0.0313 kg/ha) | GALAP herbicidal rating (GALAP (Galium) [1]; rate 0.0625 kg/ha) | GALAP herbicidal rating (GALAP (Galium) [1]; rate 0.1250 kg/ha) | ABUTH herbicidal rating (ABUTH (Velvetleaf); rate 0.0156 kg/ha) | ABUTH herbicidal rating (ABUTH (Velvetleaf); rate 0.0313 kg/ha) | ABUTH herbicidal rating (ABUTH (Velvetleaf); rate 0.0625 kg/ha) | ABUTH herbicidal rating (ABUTH (Velvetleaf); rate 0.1250 kg/ha) | Herbicidal rating MOOVA (MOOVA (Monochoria); Rate 0.0313 kg/ha) | Herbicidal rating MOOVA (MOOVA (Monochoria); Rate 0.0625 kg/ha) | Herbicidal rating MOOVA (MOOVA (Monochoria); Rate 0.1250 kg/ha) | Herbicidal rating MOOVA (MOOVA (Monochoria); Rate 0.2500 kg/ha) | GALAP rating (GALAP (Galium) [2]; 0.0156 kg/ha) | GALAP rating (GALAP (Galium) [2]; 0.0313 kg/ha) | GALAP rating (GALAP (Galium) [2]; 0.0625 kg/ha) | GALAP rating (GALAP (Galium) [2]; 0.1250 kg/ha) | GALAP rating (GALAP (Galium) [2]; 0.2500 kg/ha) | GALAP rating (GALAP (Galium) [2]; 0.5000 kg/ha) | GALAP herbicidal rating (GALAP (Galium) [1]; rate 0.0158 kg/ha) | ABUTH herbicidal rating (ABUTH (Velvetleaf); rate 0.0158 kg/ha) | further results
CCOC(=O)CN1C(=O)C(CC(=O)NOC)SC1=Nc1cc(-n2c(=O)cc(C(F)(F)F)n(C)c2=O)c(F)cc1Cl (centres unmarked) [Compound 83, Ethyl 2-{{2-chloro-5-[3,6-dihydro-3-methyl-2,6-dioxo-4-(trifluoromethyl)-1(2H)-pyrimidinyl]-4-fluorophenyl}imino}-5-[(methoxycarbamoyl)methyl]-4-oxo-3-thiazolidineacetate] | 0.0 | 0.0 | 3.0 | 5.0 | 9.0 | 9.0 | 9.0 | 9.0 | 9.0 | 9.0 | 9.0 | 9.0 | 0.0 | 0.0 | 0.0 | 0.0 | 9.0 | 9.0 | – | – | –
C=CCN1C(=O)C(CC(=O)NC)SC1=Nc1cc(-n2c(=O)cc(C(F)(F)F)n(C)c2=O)c(F)cc1Cl (centres unmarked) [Compound 84, 3-Allyl-2-{{2-chloro-5-[3,6-dihydro-3-methyl-2,6-dioxo-4-(trifluoromethyl)-1(2H)-pyrimidinyl]-4-fluorophenyl}imino}-N-methyl-4-oxo-5-thiazolidineacetamide] | 1.0 | 2.0 | 4.0 | 7.0 | 9.0 | 9.0 | 9.0 | 9.0 | 9.0 | 9.0 | 9.0 | 9.0 | 0.0 | 0.0 | 0.0 | 0.0 | 5.0 | 5.0 | – | – | –
CC(C)OC(=O)CC1SC(=Nc2cc(-n3c(=O)cc(C(F)(F)F)n(C)c3=O)c(F)cc2Cl)N(C)C1=O (centres unmarked) [Compound 89, Isopropyl 2-{{2-chloro-5-[3,6-dihydro-3-methyl-2,6-dioxo-4-(trifluoromethyl)-1(2H)-pyrimidinyl]-4-fluorophenyl}imino}-3-methyl-4-oxo-5-thiazolidineacetate] | – | 4.0 | 5.0 | 9.0 | – | 9.0 | 9.0 | 9.0 | 9.0 | 9.0 | 9.0 | 9.0 | 0.0 | 0.0 | 0.0 | 4.5 | 8.5 | 9.0 | 3.0 | 9.0 | –
C#CCOC(=O)CC1SC(=Nc2cc(-n3c(=O)cc(C(F)(F)F)n(C)c3=O)c(F)cc2Cl)N(C)C1=O (centres unmarked) [Compound 90, 2-Propynyl 2-{{2-chloro-5-[3,6-dihydro-3-methyl-2,6-dioxo-4-(trifluoromethyl)-1(2H)-pyrimidinyl]-4-fluorophenyl}imino}-3-methyl-4-oxo-5-thiazolidineacetate] | – | – | – | – | – | – | – | – | 9.0 | 9.0 | 9.0 | 9.0 | – | 0.0 | 0.0 | 3.0 | 7.0 | – | 5.0 | 9.0 | GALAP herbicidal rating (GALAP (Galium) [1]; rate 0.0315 kg/ha): 7.0; GALAP herbicidal rating (GALAP (Galium) [1]; rate 0.0630 kg/ha): 7.0; ABUTH herbicidal rating (ABUTH (Velvetleaf); rate 0.0315 kg/ha): 9.0; ABUTH herbicidal rating (ABUTH (Velvetleaf); rate 0.0630 kg/ha): 9.0
